The target in assay [1] is cGMP-inhibited 3',5'-cyclic phosphodiesterase 3A (Homo sapiens, UniProt Q14432). The assay is classed as functional.
For assay [2], the target named is T1, Adenosine receptor A3 (Homo sapiens, UniProt P0DMS8).
T1 sequence (P0DMS8 whole entry): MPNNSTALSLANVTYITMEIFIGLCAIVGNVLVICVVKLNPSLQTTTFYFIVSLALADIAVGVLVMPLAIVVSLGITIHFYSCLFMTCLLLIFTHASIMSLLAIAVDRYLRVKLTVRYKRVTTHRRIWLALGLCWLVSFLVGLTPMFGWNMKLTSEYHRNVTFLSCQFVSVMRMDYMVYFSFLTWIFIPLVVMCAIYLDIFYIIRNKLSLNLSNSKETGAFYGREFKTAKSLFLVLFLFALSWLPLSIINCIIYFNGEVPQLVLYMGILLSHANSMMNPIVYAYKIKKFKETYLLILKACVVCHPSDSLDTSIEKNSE

In assay [3] the target is Cannabinoid receptor 1 (Homo sapiens, UniProt P21554). The assay is classed as functional, cell-based.
Cannabinoid receptor 1, sequence (P21554 whole entry): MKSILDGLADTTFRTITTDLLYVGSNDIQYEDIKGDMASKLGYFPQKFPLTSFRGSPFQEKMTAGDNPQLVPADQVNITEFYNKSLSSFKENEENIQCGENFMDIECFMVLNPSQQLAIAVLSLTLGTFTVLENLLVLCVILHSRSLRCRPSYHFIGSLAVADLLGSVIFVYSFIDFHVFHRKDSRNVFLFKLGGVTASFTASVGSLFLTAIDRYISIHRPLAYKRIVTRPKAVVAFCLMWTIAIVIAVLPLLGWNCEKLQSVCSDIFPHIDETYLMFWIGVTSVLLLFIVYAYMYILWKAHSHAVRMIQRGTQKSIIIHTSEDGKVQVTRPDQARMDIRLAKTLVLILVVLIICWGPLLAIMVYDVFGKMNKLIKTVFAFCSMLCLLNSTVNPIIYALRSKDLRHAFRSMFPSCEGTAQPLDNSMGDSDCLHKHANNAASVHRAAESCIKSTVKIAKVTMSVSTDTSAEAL
Assay [4] concerns the target D(3) dopamine receptor (Homo sapiens, UniProt P35462).
For assay [5], the target named is T2, Neuropeptide Y receptor type 1 (Homo sapiens, UniProt P25929).
T2 sequence (P25929 whole entry): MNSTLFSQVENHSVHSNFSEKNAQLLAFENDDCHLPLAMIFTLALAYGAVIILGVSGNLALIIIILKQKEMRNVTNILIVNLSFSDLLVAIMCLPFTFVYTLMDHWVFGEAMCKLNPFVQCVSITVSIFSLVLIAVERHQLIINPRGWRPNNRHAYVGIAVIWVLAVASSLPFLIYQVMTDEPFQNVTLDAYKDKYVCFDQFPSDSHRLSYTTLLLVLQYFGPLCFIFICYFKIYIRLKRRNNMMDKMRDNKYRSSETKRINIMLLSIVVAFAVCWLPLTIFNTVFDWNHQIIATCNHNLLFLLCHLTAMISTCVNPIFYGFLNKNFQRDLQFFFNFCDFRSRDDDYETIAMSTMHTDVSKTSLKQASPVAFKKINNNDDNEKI

The target of assay [6] is Vasopressin V2 receptor (Homo sapiens, UniProt P30518).
Vasopressin V2 receptor, sequence (P30518 whole entry): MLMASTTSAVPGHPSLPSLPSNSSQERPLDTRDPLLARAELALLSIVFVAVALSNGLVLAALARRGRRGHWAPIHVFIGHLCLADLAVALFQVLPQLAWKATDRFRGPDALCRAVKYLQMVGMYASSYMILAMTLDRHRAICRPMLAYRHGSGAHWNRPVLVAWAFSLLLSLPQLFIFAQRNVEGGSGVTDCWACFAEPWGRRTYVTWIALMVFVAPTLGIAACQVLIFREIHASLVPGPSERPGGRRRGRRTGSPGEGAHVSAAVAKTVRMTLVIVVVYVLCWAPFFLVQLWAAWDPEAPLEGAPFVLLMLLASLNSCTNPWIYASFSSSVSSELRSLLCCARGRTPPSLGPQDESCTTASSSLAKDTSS
Assay [7] addresses T3, Alpha-2C adrenergic receptor (Homo sapiens, UniProt P18825).
T3 sequence (P18825 whole entry): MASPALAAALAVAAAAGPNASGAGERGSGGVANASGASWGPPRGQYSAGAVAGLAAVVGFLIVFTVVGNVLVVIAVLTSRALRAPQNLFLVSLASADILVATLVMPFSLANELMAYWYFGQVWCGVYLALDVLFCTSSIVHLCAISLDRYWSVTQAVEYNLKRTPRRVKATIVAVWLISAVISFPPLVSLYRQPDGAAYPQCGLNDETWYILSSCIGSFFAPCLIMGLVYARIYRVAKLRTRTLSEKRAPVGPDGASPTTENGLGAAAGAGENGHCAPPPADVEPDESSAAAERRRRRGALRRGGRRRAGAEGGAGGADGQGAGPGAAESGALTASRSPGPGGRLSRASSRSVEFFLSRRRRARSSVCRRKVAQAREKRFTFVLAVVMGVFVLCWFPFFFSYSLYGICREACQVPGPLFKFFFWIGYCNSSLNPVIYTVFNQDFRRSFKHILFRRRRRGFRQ
The assay is classed as functional.

Assay [8] deals with Sodium-dependent dopamine transporter (Homo sapiens, UniProt Q01959).
In assay [9] the target is T4, Alpha-2B adrenergic receptor (Homo sapiens, UniProt P18089).
T4 sequence (P18089 whole entry): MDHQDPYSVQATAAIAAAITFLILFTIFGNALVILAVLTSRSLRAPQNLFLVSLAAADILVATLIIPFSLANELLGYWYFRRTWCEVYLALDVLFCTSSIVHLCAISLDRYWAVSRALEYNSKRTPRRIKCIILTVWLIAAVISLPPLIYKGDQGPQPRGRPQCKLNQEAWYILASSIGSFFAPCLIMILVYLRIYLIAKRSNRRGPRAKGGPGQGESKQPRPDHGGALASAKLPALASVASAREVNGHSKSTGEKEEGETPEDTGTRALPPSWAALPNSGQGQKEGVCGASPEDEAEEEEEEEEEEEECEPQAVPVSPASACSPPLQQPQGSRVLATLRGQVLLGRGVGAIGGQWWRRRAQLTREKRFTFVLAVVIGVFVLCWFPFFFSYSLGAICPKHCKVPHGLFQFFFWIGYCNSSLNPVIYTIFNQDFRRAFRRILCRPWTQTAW

Assay [10] concerns the target Voltage-gated inwardly rectifying potassium channel KCNH2 (Homo sapiens, UniProt Q12809). The assay is classed as functional. As to conditions: read-out: AC50.
The target in assay [11] is Sodium-dependent serotonin transporter (Homo sapiens, UniProt P31645).
The target in assay [12] is Vasopressin V1a receptor (Homo sapiens, UniProt P37288).
In assay [13] the target is 3',5'-cyclic-AMP phosphodiesterase 4D (Homo sapiens, UniProt Q08499). Format: functional.
3',5'-cyclic-AMP phosphodiesterase 4D, sequence (Q08499 whole entry): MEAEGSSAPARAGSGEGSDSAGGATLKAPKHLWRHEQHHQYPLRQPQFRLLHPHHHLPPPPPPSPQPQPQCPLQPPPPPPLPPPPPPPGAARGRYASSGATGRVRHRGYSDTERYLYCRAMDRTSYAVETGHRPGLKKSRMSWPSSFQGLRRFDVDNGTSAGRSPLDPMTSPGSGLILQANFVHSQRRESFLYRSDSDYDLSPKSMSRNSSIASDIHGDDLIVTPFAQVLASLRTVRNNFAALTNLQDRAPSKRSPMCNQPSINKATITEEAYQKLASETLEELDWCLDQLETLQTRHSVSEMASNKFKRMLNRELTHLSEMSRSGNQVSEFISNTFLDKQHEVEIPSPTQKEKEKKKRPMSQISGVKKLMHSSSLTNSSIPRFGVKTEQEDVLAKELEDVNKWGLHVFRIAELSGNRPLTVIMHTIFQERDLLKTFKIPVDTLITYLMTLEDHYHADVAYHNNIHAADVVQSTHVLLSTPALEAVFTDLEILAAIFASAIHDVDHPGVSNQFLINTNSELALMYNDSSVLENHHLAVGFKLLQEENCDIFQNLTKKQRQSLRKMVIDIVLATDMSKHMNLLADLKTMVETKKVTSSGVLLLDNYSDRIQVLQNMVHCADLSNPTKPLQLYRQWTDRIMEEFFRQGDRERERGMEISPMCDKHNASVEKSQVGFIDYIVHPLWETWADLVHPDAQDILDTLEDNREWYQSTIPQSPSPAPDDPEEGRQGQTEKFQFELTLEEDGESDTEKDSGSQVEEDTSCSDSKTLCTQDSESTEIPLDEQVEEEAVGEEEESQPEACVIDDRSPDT
In assay [14] the target is Muscarinic acetylcholine receptor M3 (Homo sapiens, UniProt P20309).
Assay [15] has as its target Motilin receptor (Homo sapiens, UniProt O43193).
Assay [16] deals with T5, Alpha-2A adrenergic receptor (Homo sapiens, UniProt P08913).
T5 sequence (P08913 whole entry): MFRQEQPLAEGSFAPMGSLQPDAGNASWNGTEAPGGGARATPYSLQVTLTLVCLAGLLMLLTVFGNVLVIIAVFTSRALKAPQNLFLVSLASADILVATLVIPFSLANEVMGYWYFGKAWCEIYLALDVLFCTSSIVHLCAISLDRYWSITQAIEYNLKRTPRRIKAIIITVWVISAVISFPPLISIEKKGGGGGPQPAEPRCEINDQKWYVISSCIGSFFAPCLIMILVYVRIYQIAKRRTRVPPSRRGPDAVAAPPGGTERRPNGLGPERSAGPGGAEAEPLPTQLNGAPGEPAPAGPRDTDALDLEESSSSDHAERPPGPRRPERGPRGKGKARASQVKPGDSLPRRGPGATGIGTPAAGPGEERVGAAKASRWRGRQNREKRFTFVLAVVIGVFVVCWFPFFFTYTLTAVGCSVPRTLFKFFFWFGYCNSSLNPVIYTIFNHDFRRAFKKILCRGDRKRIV
The assay is classed as functional, cell-based.

For assay [17], the target named is Melanocortin receptor 3 (Homo sapiens, UniProt P41968).
In assay [18] the target is D(1A) dopamine receptor (Homo sapiens, UniProt P21728). The assay is classed as functional, cell-based.
D(1A) dopamine receptor, sequence (P21728 whole entry): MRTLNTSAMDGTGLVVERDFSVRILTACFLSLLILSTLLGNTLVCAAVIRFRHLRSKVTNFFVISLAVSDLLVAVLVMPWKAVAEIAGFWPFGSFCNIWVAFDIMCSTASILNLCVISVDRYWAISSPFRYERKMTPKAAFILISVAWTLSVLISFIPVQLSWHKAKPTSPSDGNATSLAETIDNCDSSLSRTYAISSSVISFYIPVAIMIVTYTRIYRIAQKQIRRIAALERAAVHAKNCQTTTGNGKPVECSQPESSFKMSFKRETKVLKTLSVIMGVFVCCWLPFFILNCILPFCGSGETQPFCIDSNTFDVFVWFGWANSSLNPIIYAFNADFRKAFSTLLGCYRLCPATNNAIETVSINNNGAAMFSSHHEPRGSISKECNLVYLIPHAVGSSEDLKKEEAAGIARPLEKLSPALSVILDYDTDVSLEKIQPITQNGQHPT

Experimental findings from ChEMBL document CHEMBL5291721, “A preclinical secondary pharmacology resource illuminates target-adverse drug reaction associations of marketed drugs” (Nat Commun, 2023) are described below.

Structures are written as SMILES. A value given as a limit tells only on which side of the number the result lay.
Further: assay procedure not described here.

Voltage-gated inwardly rectifying potassium channel KCNH2, sequence (Q12809 whole entry): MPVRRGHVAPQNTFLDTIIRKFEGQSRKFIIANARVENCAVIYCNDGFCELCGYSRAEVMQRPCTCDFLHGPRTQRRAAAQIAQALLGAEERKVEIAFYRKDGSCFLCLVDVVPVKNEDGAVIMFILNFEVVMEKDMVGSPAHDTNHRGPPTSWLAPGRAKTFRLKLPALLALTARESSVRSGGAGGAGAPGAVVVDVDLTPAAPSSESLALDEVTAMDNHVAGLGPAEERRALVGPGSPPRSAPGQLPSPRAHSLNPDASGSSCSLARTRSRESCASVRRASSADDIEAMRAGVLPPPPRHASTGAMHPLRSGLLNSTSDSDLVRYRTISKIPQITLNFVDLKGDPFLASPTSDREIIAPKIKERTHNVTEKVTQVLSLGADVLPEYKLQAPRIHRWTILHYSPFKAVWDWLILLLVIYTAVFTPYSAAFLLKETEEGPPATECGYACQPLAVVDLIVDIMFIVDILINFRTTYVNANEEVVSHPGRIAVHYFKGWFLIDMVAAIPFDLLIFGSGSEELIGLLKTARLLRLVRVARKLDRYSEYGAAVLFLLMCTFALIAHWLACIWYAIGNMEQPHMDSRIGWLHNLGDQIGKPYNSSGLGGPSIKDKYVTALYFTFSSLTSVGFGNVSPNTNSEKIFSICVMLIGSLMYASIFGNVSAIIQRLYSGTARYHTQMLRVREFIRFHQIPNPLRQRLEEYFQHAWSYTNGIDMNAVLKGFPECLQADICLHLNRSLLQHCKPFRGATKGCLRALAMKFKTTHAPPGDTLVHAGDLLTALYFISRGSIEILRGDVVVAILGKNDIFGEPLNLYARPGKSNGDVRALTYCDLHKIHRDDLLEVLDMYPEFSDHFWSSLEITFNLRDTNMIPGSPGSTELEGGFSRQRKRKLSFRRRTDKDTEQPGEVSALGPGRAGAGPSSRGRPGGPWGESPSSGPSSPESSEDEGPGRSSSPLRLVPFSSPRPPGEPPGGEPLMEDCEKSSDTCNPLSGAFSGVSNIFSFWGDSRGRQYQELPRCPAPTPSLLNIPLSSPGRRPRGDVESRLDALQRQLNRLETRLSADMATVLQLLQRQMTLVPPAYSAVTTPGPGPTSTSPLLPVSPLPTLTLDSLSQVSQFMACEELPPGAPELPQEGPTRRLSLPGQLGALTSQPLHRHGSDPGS
Motilin receptor, sequence (O43193 whole entry): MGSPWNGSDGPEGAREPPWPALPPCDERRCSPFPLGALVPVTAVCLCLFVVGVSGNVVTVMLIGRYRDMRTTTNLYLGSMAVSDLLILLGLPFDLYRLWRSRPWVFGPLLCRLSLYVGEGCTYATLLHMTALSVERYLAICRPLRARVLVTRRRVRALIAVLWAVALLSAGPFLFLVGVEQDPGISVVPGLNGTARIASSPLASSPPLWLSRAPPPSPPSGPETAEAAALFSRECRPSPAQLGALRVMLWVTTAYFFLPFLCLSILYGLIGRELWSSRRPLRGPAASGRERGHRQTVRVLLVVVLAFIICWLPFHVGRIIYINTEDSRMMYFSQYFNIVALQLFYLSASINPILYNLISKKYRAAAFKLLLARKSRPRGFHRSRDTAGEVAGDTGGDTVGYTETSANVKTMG
cGMP-inhibited 3',5'-cyclic phosphodiesterase 3A, sequence (Q14432 whole entry): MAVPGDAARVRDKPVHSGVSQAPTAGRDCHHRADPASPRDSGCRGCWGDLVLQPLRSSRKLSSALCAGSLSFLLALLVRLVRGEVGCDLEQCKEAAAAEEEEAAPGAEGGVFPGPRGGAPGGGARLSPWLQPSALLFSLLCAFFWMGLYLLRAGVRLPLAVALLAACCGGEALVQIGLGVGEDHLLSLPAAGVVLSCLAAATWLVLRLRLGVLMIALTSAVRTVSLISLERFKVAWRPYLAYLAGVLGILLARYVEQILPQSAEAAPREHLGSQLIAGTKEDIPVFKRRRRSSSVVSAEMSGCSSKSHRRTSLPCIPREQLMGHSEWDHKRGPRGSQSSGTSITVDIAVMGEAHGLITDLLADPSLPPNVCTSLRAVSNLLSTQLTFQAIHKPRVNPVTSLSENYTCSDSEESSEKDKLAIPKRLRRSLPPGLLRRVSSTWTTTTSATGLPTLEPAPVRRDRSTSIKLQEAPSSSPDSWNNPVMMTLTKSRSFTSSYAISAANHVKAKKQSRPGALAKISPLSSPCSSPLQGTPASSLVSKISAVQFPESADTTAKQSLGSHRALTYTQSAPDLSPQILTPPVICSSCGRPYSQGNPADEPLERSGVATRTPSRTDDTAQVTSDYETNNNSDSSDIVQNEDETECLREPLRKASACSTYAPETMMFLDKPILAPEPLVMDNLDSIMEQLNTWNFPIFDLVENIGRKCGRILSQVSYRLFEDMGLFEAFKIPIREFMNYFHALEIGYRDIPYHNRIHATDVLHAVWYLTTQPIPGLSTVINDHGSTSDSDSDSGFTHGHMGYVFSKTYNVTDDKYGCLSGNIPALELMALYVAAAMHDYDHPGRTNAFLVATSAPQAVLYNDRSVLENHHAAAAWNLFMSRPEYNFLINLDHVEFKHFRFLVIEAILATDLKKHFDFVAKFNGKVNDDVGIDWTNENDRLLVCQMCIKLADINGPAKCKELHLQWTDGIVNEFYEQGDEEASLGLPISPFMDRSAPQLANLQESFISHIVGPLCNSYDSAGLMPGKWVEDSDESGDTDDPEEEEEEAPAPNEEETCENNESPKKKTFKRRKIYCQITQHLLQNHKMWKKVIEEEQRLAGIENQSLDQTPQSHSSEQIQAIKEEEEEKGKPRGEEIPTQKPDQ

For `CC(C)(C)C(=O)Oc1ccc(S(=O)(=O)Nc2ccccc2C(=O)NCC(=O)O)cc1`, the AC50 in assay [1], in [2], in assay [3], in [4], in assay [5] and in assay [6] was > 30 µM each time. Besides, the concentration at half-maximal activity (AC50) (as a rule, the concentration at which the activity in the assay is half-maximal) was > 30 µM in assay [7]; > 30 µM in assay [8]; > 30 µM in assay [9]; > 30 µM in assay [10]; > 10 µM in [11]; > 30 µM in assay [12]. Further, the half-maximal activity concentration (AC50) in [13], in assay [14], in assay [15], in assay [16], in assay [17] and in assay [18] was > 30 µM each time.

In the case of `CC(C)C(=O)c1c(C(C)C)nn2ccccc12` [IBUDILAST], the concentration at half-maximal activity (AC50) in assay [2], in assay [3], in assay [4], in assay [5], in assay [6] and in assay [7] was > 30 µM throughout. In addition, the AC50 is > 30 µM in assay [8]; > 30 µM in assay [9]; > 30 µM in [10]; > 30 µM in [11]; > 30 µM in assay [12]; 0.4 µM in assay [13]. The half-maximal activity concentration (AC50) in [14], in assay [15], in assay [16], in assay [17] and in assay [18] was > 30 µM throughout.

For `CN1C(=O)C(O)N=C(c2ccccc2Cl)c2cc(Cl)ccc21` (stereo unspecified) [LORMETAZEPAM], the AC50 in [1] was > 10 µM; in assay [2], > 30 µM; in assay [3] it was > 30 µM; in assay [4] it was > 30 µM; in assay [5], > 30 µM; in assay [6], > 30 µM. For the same molecule, the concentration at half-maximal activity (AC50) in assay [7], in assay [8], in assay [9], in assay [10], in assay [11] and in [12] was > 30 µM throughout. The AC50 in assay [13] was 5.6 µM; in [14], > 30 µM; in [15], > 30 µM; in assay [17], > 30 µM; in [18], > 30 µM.

As for `COc1ccc2c3c1O[C@H]1C(=O)CC[C@@]4(O)[C@@H](C2)N(C)CC[C@]314` [OXYCODONE], the AC50 in assay [1], in assay [2], in [3], in assay [4], in assay [5] and in assay [6] was > 30 µM in each case. The AC50 in [8], in assay [9], in assay [10], in assay [11], in assay [12] and in assay [13] was > 30 µM in each case. For the same molecule, the AC50 in assay [14], in assay [15], in assay [16], in [17] and in [18] was > 30 µM each time.

For `Clc1ccc(CCCOCCCN2CCCCC2)cc1` [PITOLISANT], the AC50 in assay [1], in assay [2], in [3], in [4], in assay [5] and in [6] was > 30 µM in each case. Also, the concentration at half-maximal activity (AC50) in assay [7] was 6 µM; in assay [8], 8.5 µM; in [9] it was > 30 µM; in assay [10] it was 1.7 µM; in assay [11], 9.9 µM; in assay [12], > 30 µM. In addition, the concentration at half-maximal activity (AC50) in assay [13], in assay [14], in [15], in assay [17] and in assay [18] was > 30 µM in each case.

Turning to `CN1C(=O)C(O)N=C(c2ccccc2)c2cc(Cl)ccc21` (stereo unspecified) [TEMAZEPAM], the half-maximal activity concentration (AC50) in [1] is 3 µM; in assay [2], > 30 µM; in [3] it was > 30 µM; in assay [4], > 10 µM; in assay [5] it was > 30 µM; in [6], > 30 µM. The half-maximal activity concentration (AC50) was > 10 µM in assay [7]; > 10 µM in assay [8]; > 10 µM in assay [9]; > 10 µM in [11]; > 10 µM in assay [12]; > 30 µM in assay [13]. The AC50 in assay [14] is > 10 µM; in [15] it was > 10 µM; in [16] it was > 10 µM; in assay [17] it was > 30 µM; in assay [18], > 10 µM.

On to `C/C(O)=C(\C#N)C(=O)Nc1ccc(C(F)(F)F)cc1` [TERIFLUNOMIDE], for which the AC50 in assay [1], in [2], in assay [3], in assay [4], in assay [7] and in assay [8] was > 30 µM in each case. Also, the AC50 in assay [9], in assay [10], in assay [11], in [12], in [13] and in [14] was > 30 µM in each case. The half-maximal activity concentration (AC50) in assay [15], in assay [16], in assay [17] and in assay [18] was > 30 µM in each case.

Turning to `CC(CC(c1ccccc1)c1ccccc1)NC(C)(C)C` (stereo unspecified) [TERODILINE], the AC50 in assay [1], in assay [2], in [3], in [4], in assay [5] and in assay [6] was > 30 µM throughout. Besides, the concentration at half-maximal activity (AC50) is > 30 µM in [7]; 20 µM in assay [8]; 16 µM in assay [9]; > 30 µM in assay [11]; > 30 µM in assay [12]; > 30 µM in assay [13]. In addition, the concentration at half-maximal activity (AC50) was 1.1 µM in assay [14]; > 30 µM in [15]; > 30 µM in [16]; > 30 µM in [17]; > 30 µM in [18].
